Values quoted from earlier work as cited in patent US11946086B2, “Gene involved in synthesis of cyclic peptide compound, method for producing cyclic peptide compound using the same, and transformant comprising the same” (NATIONAL INSTITUTE OF ADVANCED INDUSTRIAL SCIENCE AND …, priority 2017, dated 2024).
Non-standard residues stand in square brackets, D forms with d. Residues, ends and D or L forms follow the SMILES beside them. NMeI = CC[CH](C)[CH](NC)C(=O)O; NMeD = CN[CH](CC(=O)O)C(=O)O; NMeV = CN[CH](C(=O)O)C(C)C; Pip = O=C(O)[CH]1CCCCN1; Lac = C[CH](O)C(=O)O

Test system: plant pathogenic bacteria, and, in particular, fungi
Settings: against plant pathogenic bacteria

SMILES: CCC(C)C1C(=O)NCC(=O)N(C)C(C(C)C)C(=O)NC(Cc2ccc(OC)cc2)C(=O)OC(C)C(=O)N2CCCCC2C(=O)N(C)C(C(C)C)C(=O)NC(C(C)C)C(=O)N(C)C(CC(=O)O)C(=O)N(C)C(C(C)C)C(=O)N1C (stereo not shown) [KK-1, Tyrosine, N-[N-[N-[N-[N-[N-[N-[N-[[1-(2-hydroxy-1-oxopropyl)-2-piperidinyl]carbonyl]-N-methylvalyl]valyl]-N-methyl-a-aspartyl]-N-methylvalyl]-N-methylisoleucyl]glycyl]-N-methylvalyl]-O-methyl-, d2-lactone (9CI)] (cyclo(G[NMeV]Y(Me)[Lac][Pip][NMeV]V[NMeD][NMeV][NMeI]); configuration not given here)
- bactericidal activity: potent bactericidal activity
